# Source: US12291519B2, “2-hydroxycycloalkane-1-carbamoyl” (Idorsia Pharmaceuticals Ltd, priority 2019, dated 2025)
# Assays:
# human Gal-1 (hGal-1) [1] = biological target: human Gal-1 (hGal-1) (Homo sapiens, UniProt P09382); test: Competitive binding assay: biotinylated hGal-1 binding to microplate-adsorbed asialofetuin (ASF); settings: Activity on hGal-1; binding of biotinylated hGal-1 to ASF-coated plates; mean values
# Outline: (§1)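 Inhibition measured as loss of hGal-1 (biotinylated, 300–1000 ng/mL, wild type or Cys→Ser mutant) binding to adsorbed asialofetuin over 3 h at 4 °C. Bound lectin detected with streptavidin-HRP and ABTS (410 nm, 30–45 min); IC50 values averaged across repeat measurements.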
# human Gal-3 (hGal-3) = human Gal-3 (hGal-3) (Homo sapiens (Human), UniProt P17931); test: Competitive binding assay: biotinylated hGal-3 binding to microplate-adsorbed asialofetuin (ASF); settings: Activity on hGal-3; binding of biotinylated hGal-3 to ASF-coated plates; mean values
# Outline: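 Serially diluted compounds competed with biotinylated human Gal-3 for binding to plate-adsorbed asialofetuin over 3 h at 4 °C. Bound Gal-3 was detected with streptavidin-peroxidase (80 ng/mL, 1 h, 4 °C) and ABTS substrate. IC50 values are means of several measurements.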
# human Gal-1 (hGal-1) [2] = test: Competitive binding assay: biotinylated hGal-1 binding to microplate-adsorbed asialofetuin (ASF); settings: Activity on hGal-1; binding of biotinylated hGal-1 to ASF-coated plates; mean values
# Outline: as §1
# Chain of human Gal-3 (hGal-3) (P17931 whole entry): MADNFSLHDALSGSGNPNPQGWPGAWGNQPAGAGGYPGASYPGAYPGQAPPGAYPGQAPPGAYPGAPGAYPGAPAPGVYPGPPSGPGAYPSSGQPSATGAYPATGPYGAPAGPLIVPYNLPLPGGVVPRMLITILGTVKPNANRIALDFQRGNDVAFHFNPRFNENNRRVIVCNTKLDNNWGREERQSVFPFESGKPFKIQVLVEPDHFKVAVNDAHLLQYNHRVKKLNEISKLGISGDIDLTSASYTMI
# Chain of human Gal-1 (hGal-1) (P09382 2-135 limits assumed): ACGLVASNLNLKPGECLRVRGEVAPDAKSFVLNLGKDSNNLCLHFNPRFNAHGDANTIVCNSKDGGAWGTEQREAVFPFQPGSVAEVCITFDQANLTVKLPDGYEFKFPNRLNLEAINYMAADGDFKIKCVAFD
# Chain of human Gal-1 (hGal-1) (Homo sapiens, UniProt P09382) (P09382 2-135 limits assumed): as above
Compound,IC50 (human Gal-1 (hGal-1) [1]) [nM],IC50 (human Gal-3 (hGal-3)) [nM],IC50 (human Gal-1 (hGal-1) [2]) [nM]
"CO[C@@H]1[C@@H](n2cc(-c3cc(F)c(C)c(F)c3)nn2)[C@@H](O)[C@@H](CO)O[C@H]1C(=O)N(c1cc(F)cc(Br)c1)[C@H]1CCCC[C@@H]1O [Example 160, (2R,3R,4S,5R,6R)-N-(3-bromo-5-fluorophenyl)-4-(4-(3,5-difluoro-4-methylphenyl)-1H-1,2,3-triazol-1-yl)-5-hydroxy-N-((1S,2S)-2-hydroxycyclohexyl)-6-(hydroxymethyl)-3-methoxytetrahydro-2H-pyran-2-carboxamide]",1770,11,–
"CO[C@@H]1[C@@H](n2cc(-c3cc(F)c(NCCCO)c(F)c3)nn2)[C@@H](O)[C@@H](CO)O[C@H]1C(=O)N(c1cc(Cl)cc(Cl)c1)[C@H]1CCCC[C@@H]1O [Example 204, (2R,3R,4S,5R,6R)—N-(3,5-dichlorophenyl)-4-(4-(3,5-difluoro-4-((3-hydroxypropyl)amino)phenyl)-1H-1,2,3-triazol-1-yl)-5-hydroxy-N-((1S,2S)-2-hydroxycyclohexyl)-6-(hydroxymethyl)-3-methoxytetrahydro-2H-pyran-2-carboxamide]",–,21,273
"COc1cc(C#N)cc(N(C(=O)[C@@H]2O[C@H](CO)[C@H](O)[C@H](n3cc(-c4ccc(C#N)c(F)c4)nn3)[C@H]2OC)[C@H]2CCCC[C@@H]2O)c1 [Example 205, (2R,3R,4S,5R,6R)-4-(4-(4-cyano-3-fluorophenyl)-1H-1,2,3-triazol-1-yl)-N-(3-cyano-5-methoxyphenyl)-5-hydroxy-N-((1S,2S)-2-hydroxycyclohexyl)-6-(hydroxymethyl)-3-methoxytetrahydro-2H-pyran-2-carboxamide]",–,87,1820
"CO[C@@H]1[C@@H](n2cc(-c3ccc(C#N)c(F)c3)nn2)[C@@H](O)[C@@H](CO)O[C@H]1C(=O)N(c1cc(C)cc(C#N)c1)[C@H]1CCCC[C@@H]1O [Example 206, (2R,3R,4S,5R,6R)-4-(4-(4-cyano-3-fluorophenyl)-1H-1,2,3-triazol-1-yl)-N-(3-cyano-5-methylphenyl)-5-hydroxy-N-((1S,2S)-2-hydroxycyclohexyl)-6-(hydroxymethyl)-3-methoxytetrahydro-2H-pyran-2-carboxamide]",–,126,1340
"CO[C@@H]1[C@@H](n2cc(-c3cc(F)c(F)c(F)c3)nn2)[C@@H](O)[C@@H](CO)O[C@H]1C(=O)N(c1cccc(Cl)c1)[C@H]1CCCCC[C@@H]1O [Example 207, (2R,3R,4S,5R,6R)-N-(3-chlorophenyl)-5-hydroxy-N-((1S,2S)-2-hydroxycycloheptyl)-6-(hydroxymethyl)-3-methoxy-4-(4-(3,4,5-trifluorophenyl)-1H-1,2,3-triazol-1-yl)tetrahydro-2H-pyran-2-carboxamide]",–,49,1790
"CO[C@@H]1[C@@H](n2cc(-c3cc(F)c(F)c(F)c3)nn2)[C@@H](O)[C@@H](CO)O[C@H]1C(=O)N(c1cc(Cl)cc(Cl)c1)[C@H]1CCCCC[C@@H]1O [Example 208, (2R,3R,4S,5R,6R)-N-(3,5-dichlorophenyl)-5-hydroxy-N-((1S,2S)-2-hydroxycycloheptyl)-6-(hydroxymethyl)-3-methoxy-4-(4-(3,4,5-trifluorophenyl)-1H-1,2,3-triazol-1-yl)tetrahydro-2H-pyran-2-carboxamide]",–,62,586
"(2R,3R,5R,6R)—N-(3,5-dichlorophenyl)-5-hydroxy-N-(1S,2S)-2-hydroxycyclohexyl-3-(2-hydroxyethoxy)-6-(hydroxymethyl)-4-(4-(3,4,5-trifluorophenyl)-1H-1,2,3-triazol-1-yl)tetrahydro-2H-pyran-2-carboxamide [Example 196]",161,21,–
